According to article PMC2818863 (Bioorganic & medicinal chemistry, 2009):

What was measured:
Format in all cases: biochemical
[1] = target: PLAP (Homo sapiens, UniProt P05187); assay: PLAP luminescent assay; details: for IC50: PLAP potency (IC50), mean ± SD of three experiments, CDP-star 85 μM
[2] = target: T1, IAP (Homo sapiens, UniProt P09923); assay: IAP luminescent assay; details: ratio IC50 IAP / IC50 PLAP
T1 sequence (P09923 20-503 limits assumed): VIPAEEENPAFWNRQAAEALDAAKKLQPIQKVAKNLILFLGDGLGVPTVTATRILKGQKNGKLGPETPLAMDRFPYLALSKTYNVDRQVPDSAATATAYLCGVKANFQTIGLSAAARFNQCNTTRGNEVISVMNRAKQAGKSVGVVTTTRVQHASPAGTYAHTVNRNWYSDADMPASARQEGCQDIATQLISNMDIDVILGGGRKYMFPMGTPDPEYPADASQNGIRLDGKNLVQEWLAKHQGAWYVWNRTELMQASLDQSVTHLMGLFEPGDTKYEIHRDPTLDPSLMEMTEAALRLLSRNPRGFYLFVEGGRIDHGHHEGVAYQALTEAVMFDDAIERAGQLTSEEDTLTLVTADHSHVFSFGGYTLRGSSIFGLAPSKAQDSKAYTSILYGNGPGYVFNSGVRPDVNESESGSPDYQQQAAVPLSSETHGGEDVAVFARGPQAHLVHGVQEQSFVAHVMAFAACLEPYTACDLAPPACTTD

[3] = target: GCAP (Homo sapiens, UniProt P10696); assay: GCAP luminescent assay; details: ratio IC50 GCAP / IC50 PLAP; for 12, 13, 20 from the separate-occasion values
[4] = target: T2, TNAP (Homo sapiens, UniProt P05186); assay: TNAP luminescent assay; details: ratio IC50 TNAP / IC50 PLAP
T2 sequence (P05186 18-502 limits assumed): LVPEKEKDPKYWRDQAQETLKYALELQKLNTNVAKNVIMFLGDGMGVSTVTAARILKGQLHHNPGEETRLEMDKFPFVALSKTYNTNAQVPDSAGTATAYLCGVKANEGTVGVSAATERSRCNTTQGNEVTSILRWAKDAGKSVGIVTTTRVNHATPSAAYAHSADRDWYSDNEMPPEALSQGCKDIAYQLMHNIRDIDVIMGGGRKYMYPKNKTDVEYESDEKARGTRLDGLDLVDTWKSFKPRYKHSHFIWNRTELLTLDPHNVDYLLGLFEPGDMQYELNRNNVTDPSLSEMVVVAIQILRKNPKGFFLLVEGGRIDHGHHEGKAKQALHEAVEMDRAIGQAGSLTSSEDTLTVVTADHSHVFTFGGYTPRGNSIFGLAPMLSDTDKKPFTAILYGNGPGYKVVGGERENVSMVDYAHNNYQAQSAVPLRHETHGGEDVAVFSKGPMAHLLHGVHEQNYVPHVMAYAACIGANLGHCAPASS

Chain of PLAP (P05187 23-506 limits assumed): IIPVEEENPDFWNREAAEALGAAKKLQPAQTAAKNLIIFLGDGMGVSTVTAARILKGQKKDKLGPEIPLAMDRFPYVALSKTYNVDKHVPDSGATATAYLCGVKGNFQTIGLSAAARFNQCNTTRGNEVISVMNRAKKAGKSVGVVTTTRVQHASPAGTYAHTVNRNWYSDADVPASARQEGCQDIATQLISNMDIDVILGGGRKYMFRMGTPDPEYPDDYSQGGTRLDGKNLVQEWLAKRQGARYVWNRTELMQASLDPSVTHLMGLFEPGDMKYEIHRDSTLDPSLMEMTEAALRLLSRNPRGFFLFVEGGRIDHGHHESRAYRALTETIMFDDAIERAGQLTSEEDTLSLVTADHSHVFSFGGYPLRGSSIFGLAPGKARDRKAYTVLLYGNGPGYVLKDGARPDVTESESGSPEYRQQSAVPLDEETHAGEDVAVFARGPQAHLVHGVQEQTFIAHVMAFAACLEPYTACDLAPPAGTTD
Chain of GCAP (P10696 20-503 limits assumed): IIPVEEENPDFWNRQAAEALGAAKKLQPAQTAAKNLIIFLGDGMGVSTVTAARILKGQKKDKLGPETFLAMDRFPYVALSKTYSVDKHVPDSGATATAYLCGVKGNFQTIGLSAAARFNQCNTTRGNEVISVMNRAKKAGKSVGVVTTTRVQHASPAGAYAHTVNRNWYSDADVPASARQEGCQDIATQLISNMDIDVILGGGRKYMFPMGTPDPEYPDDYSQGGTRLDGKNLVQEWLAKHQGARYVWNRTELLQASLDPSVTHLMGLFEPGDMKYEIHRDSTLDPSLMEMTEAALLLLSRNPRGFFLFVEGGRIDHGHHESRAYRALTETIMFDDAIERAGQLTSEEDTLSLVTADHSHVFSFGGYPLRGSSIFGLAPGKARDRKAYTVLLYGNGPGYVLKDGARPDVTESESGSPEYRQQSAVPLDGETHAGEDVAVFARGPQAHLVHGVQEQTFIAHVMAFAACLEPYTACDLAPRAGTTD

IC50 [1]	PLAP inhibitory potency at 100 μM [1]	Compound	other results
> 100 µM	no PLAP inhibitory potency	Cc1cc(C)nc(SCC(=O)c2ccc(O)cc2)n1 [Compound 3]	
> 100 µM	no PLAP inhibitory potency	Cc1cc(C)nc(SCC(=O)c2cccc(O)c2)n1 [Compound 4]	
> 100 µM	no PLAP inhibitory potency	COc1cc(C(=O)CSc2nc(C)cc(C)n2)ccc1O [Compound 5]	
> 100 µM	no PLAP inhibitory potency	Cc1cc(C)nc(SCC(=O)c2ccc3c(c2)OCO3)n1 [Compound 6]	
> 100 µM	no PLAP inhibitory potency	COc1ccc(C(=O)CSc2nc(C)cc(C)n2)cc1 [Compound 7]	
~3 µM		O=C(Cn1ccnc1)c1ccc(O)c(O)c1 [Compound 8]	
2.7 ± 0.1 µM		Cc1cnn(CC(=O)c2ccc(O)c(O)c2)c1 [Compound 10]	Selectivity (IAP/PLAP) [2]: > 25 fold
3.3 ± 0.2 µM		Cc1nccn1CC(=O)c1ccc(O)c(O)c1 [Compound 12]	
~3 µM		CCc1nccn1CC(=O)c1ccc(O)c(O)c1 [Compound 13]	Selectivity (GCAP/PLAP) [3]: ^* (2.1)
		Cc1cc2ncn(CC(=O)c3ccc(O)c(O)c3)c2cc1C [Compound 18]	Selectivity (TNAP/PLAP) [4]: > 17 fold
4.9 ± 0.6 µM		Cc1nc(Br)cn1CC(=O)c1ccc(O)c(O)c1 [Compound 19]	increase in PLAP inhibitory potency ([1]; 19 relative to 16): 3 fold
> 100 µM		Cc1cc(C(=O)NCc2ccc(O)c(O)c2)oc1C [Compound 25]	
> 100 µM		Cc1cc(C(=O)NCCc2ccc(O)c(O)c2)oc1C [Compound 26]	
> 100 µM		O=C(CSc1nnc(-c2ccccc2)[nH]1)c1ccc(O)c(O)c1 [Compound 28]	
> 100 µM		Cn1c(SCC(=O)c2ccccc2)nnc1-c1cccc(N)c1 [Compound 29]	
2 ± 0.1 µM		COc1ccc(-n2nnnc2SCC(=O)c2ccc(O)c(O)c2)cc1 [Compound 32]	
